Measurements reported in US20170333591A9, “ABSORBENT ARTICLE COMPRISING MALODOR REDUCTION COMPOSITIONS” (The Procter & Gamble Company, priority 2014, published 2017).

Assay: Log of liquid dish neat product liquid-air partition coefficient
Format: physicochemical
Settings: for Log of liquid dish neat product liquid-air partition coefficient (Comment Code): code letters K/L of the Comment Code; for Log of liquid dish neat product liquid-air partition coefficient (Comment Code K/L): Comment Code letters K and/or L

SMILES | Comment Code: Log of liquid dish neat product liquid-air partition coefficient | Log of liquid dish neat product liquid-air partition coefficient (Comment Code) | Log of liquid dish neat product liquid-air partition coefficient (Comment Code K/L)
COC1CC2CC1C1CC(C=O)CC21 (centres unmarked) [Material 1027] | K (Log of liquid dish neat product liquid-air partition coefficient greater than or equal to 7) | K (Log of liquid dish neat product liquid-air partition coefficient greater than or equal to 7) | –
CC1=CC[C@@H]2[C@@]3(C)CCCC(C)(C)[C@@H]3CC[C@@]2(C)O1 [Material 1029] | K (Log of liquid dish neat product liquid-air partition coefficient greater than or equal to 7) | K (Log of liquid dish neat product liquid-air partition coefficient greater than or equal to 7) | –
CCCOC(=O)[C@H](C)OC(C)(C)CC [Material 1030] | K (Log of liquid dish neat product liquid-air partition coefficient greater than or equal to 7) | – | –
CC(C)Cc1ccc(CC(C)C=O)cc1 (centres unmarked) [Material 1033] | – | K (Log of liquid dish neat product liquid-air partition coefficient greater than or equal to 7) | –
C=C1CC[C@@H]2[C@H]([C@H]3[C@H]1CC[C@]3(C)O)C2(C)C [Material 1035] | K (Log of liquid dish neat product liquid-air partition coefficient greater than or equal to 7) | K (Log of liquid dish neat product liquid-air partition coefficient greater than or equal to 7) | –
CC1CCC2C(C2(C)C)C12COC(C)(C)OC2 (centres unmarked) [Material 1036] | – | K (Log of liquid dish neat product liquid-air partition coefficient greater than or equal to 7) | –
C=CCCC(=O)C1=CCCC2(CCCC2)C1 [Material 1038] | K (Log of liquid dish neat product liquid-air partition coefficient greater than or equal to 7) | K (Log of liquid dish neat product liquid-air partition coefficient greater than or equal to 7) | –
CC(=O)OC(C)c1ccccc1 (centres unmarked) [Material 1041] | K (Log of liquid dish neat product liquid-air partition coefficient greater than or equal to 7) | – | –
CCCCCCC/C=C\CCC=O [Material 1045] | – | K (Log of liquid dish neat product liquid-air partition coefficient greater than or equal to 7) | –
CC1=CC2C(C(C)C)CCC(C)(O)C2CC1 (centres unmarked) [Material 1046] | – | K (Log of liquid dish neat product liquid-air partition coefficient greater than or equal to 7) | –
CC1=CC2C(C(C)C)CCC(C)(O)C2CC1 (centres unmarked) [Material 1047] | – | K (Log of liquid dish neat product liquid-air partition coefficient greater than or equal to 7) | –
CC(O)CCC1C(C)CCCC1(C)C (centres unmarked) [Material 1052] | K (Log of liquid dish neat product liquid-air partition coefficient greater than or equal to 7) | – | –
CCCC(O)CCC1C(C)CCCC1(C)C (centres unmarked) [Material 1063] | – | K (Log of liquid dish neat product liquid-air partition coefficient greater than or equal to 7) | –
CC(C)=CCC/C(C)=C/CC/C(C)=C/CO [Material 1065] | – | K (Log of liquid dish neat product liquid-air partition coefficient greater than or equal to 7) | –
CC/C=C\C/C=C/CCO [Material 1072] | – | K (Log of liquid dish neat product liquid-air partition coefficient greater than or equal to 7) | –
CC=CC(=O)C1C(C)=CCCC1(C)C (centres unmarked) [Material 1074] | K (Log of liquid dish neat product liquid-air partition coefficient greater than or equal to 7) | – | –
CC(C)=CCC/C(C)=C/CO [Material 1082] | – | K (Log of liquid dish neat product liquid-air partition coefficient greater than or equal to 7) | –
CCCCCC1C(=O)CCC1CC(=O)OC (centres unmarked) [Material 1083] | – | K (Log of liquid dish neat product liquid-air partition coefficient greater than or equal to 7) | –
C/C=C/c1ccc(O)c(OC)c1 [Material 1084] | K (Log of liquid dish neat product liquid-air partition coefficient greater than or equal to 7) | – | –
CCCCCCCCCCCCCO [Material 1090] | – | K (Log of liquid dish neat product liquid-air partition coefficient greater than or equal to 7) | –

SMILES | Comment Code: Log of liquid dish neat product liquid-air partition coefficient | Log of liquid dish neat product liquid-air partition coefficient (Comment Code) | Log of liquid dish neat product liquid-air partition coefficient (Comment Code K/L)
CC(=O)C1CC/C(C)=C\CC/C(C)=C\C/C=C/1C (centres unmarked) [Material 1095] | – | K (Log of liquid dish neat product liquid-air partition coefficient greater than or equal to 7) | –
CC1CC2CCC3C(C2O1)C(C)(C)C(C)C3(C)C (centres unmarked) [Material 1097] | K (Log of liquid dish neat product liquid-air partition coefficient greater than or equal to 7) | K (Log of liquid dish neat product liquid-air partition coefficient greater than or equal to 7) | –
CC1CC=CCCCCCCCC(=O)OCC1 (centres unmarked) [Material 1099] | – | K (Log of liquid dish neat product liquid-air partition coefficient greater than or equal to 7) | –
CCCCCCCCCCC=O [Material 1102] | – | K (Log of liquid dish neat product liquid-air partition coefficient greater than or equal to 7) | –
CCC=C(C)C(O)CCCCC (centres unmarked) [Material 1104] | – | K (Log of liquid dish neat product liquid-air partition coefficient greater than or equal to 7) | –
C=C(C)[C@@H]1CCC2=CCC[C@@H](C)[C@]2(C)C1 [Material 1105] | – | K (Log of liquid dish neat product liquid-air partition coefficient greater than or equal to 7) | –
C[C@@H]1CCC=C2CC[C@@H](C(C)(C)O)C[C@]21C [Material 1107] | K (Log of liquid dish neat product liquid-air partition coefficient greater than or equal to 7) | K (Log of liquid dish neat product liquid-air partition coefficient greater than or equal to 7) | –
CC=Cc1ccc(OCC)c(O)c1 [Material 1112] | K (Log of liquid dish neat product liquid-air partition coefficient greater than or equal to 7) | – | –
COCc1ccc(O)c(OC)c1 [Material 1113] | – | – | K (Log of liquid dish neat product liquid-air partition coefficient greater than or equal to 7)
CC(C=O)=CCC1C(C)=CCCC1(C)C (centres unmarked) [Material 1116] | – | – | K (Log of liquid dish neat product liquid-air partition coefficient greater than or equal to 7)
COc1ccc(C=O)cc1OC [Material 1118] | K (Log of liquid dish neat product liquid-air partition coefficient greater than or equal to 7) | – | –
CC1CC(C)(c2ccccc2)OC(C)O1 (centres unmarked) [Material 1126] | – | – | K (Log of liquid dish neat product liquid-air partition coefficient greater than or equal to 7)
CC(=O)C1=C(C)[C@@H]2C[C@@]3(C1)[C@H](C)CC[C@H]3C2(C)C [Material 1129] | K (Log of liquid dish neat product liquid-air partition coefficient greater than or equal to 7) | – | K (Log of liquid dish neat product liquid-air partition coefficient greater than or equal to 7)
CC(=O)OC(C)CC(C)(C)c1ccccc1 (centres unmarked) [Material 1134] | K (Log of liquid dish neat product liquid-air partition coefficient greater than or equal to 7) | – | –
C[C@@H]1CC[C@H]2[C@@H]1[C@H]1[C@@H](CC[C@]2(C)O)C1(C)C [Material 1140] | K (Log of liquid dish neat product liquid-air partition coefficient greater than or equal to 7) | – | K (Log of liquid dish neat product liquid-air partition coefficient greater than or equal to 7)
C[C@H]1[C@@H]2C[C@H](C[C@@]13C=CC(=O)CC3)C2(C)C [Material 1143] | K (Log of liquid dish neat product liquid-air partition coefficient greater than or equal to 7) | – | K (Log of liquid dish neat product liquid-air partition coefficient greater than or equal to 7)
CC1(C)C2CCC3(C2)C1C1(CCC3(C)C)OCCO1 (centres unmarked) [Material 1144] | K (Log of liquid dish neat product liquid-air partition coefficient greater than or equal to 7) | – | K (Log of liquid dish neat product liquid-air partition coefficient greater than or equal to 7)
CC1(C)C2CCC3(C2)C1C1(CCC3(C)C)OCCO1 (centres unmarked) [Material 1145] | K (Log of liquid dish neat product liquid-air partition coefficient greater than or equal to 7) | – | K (Log of liquid dish neat product liquid-air partition coefficient greater than or equal to 7)
C=C1CCC2OC2(C)CCC2C1CC2(C)C (centres unmarked) [Material 1148] | K (Log of liquid dish neat product liquid-air partition coefficient greater than or equal to 7) | – | K (Log of liquid dish neat product liquid-air partition coefficient greater than or equal to 7)
CC1(C)C2CCC3(C2)C1C(=O)CCC3(C)C (centres unmarked) [Material 1149] | K (Log of liquid dish neat product liquid-air partition coefficient greater than or equal to 7) | – | K (Log of liquid dish neat product liquid-air partition coefficient greater than or equal to 7)
